Assay results taken from patent US10131648B2, “Substituted benzothiophenyl derivatives as GPR40 agonists for the treatment of type II diabetes” (Janssen Pharmaceutica NV, priority 2014, dated 2018).
Values joined by “and” are separate entries in the source; they are usually repeats but may differ in a detail not shown here. Identical values can stand only once.

biological target: human GPR40 (Homo sapiens (Human), UniProt O14842); experiment: GPR40 Calcium Flux Assay; type: cell-based; settings: transfected HEK293 cells stably expressing human GPR40; Ca2+ mobilization; mean data; read-out: hGPR40 Ca^2+ Assay EC50
Protocol: Compounds were tested in a calcium flux assay using transfected HEK293 cells stably expressing either human GPR40 or rat GPR40. Human GPR40 expressing cells were cultured in DMEM-High Glucose media supplemented with 10% fetal bovine serum, 1×L-Glutamine, 1×Penicillin/Streptomycin and 500 μg/mL G418. Rat GPR40 expressing cells were cultured in DMEM-High Glucose media supplemented with 10% fetal bovine serum and 1 μg/mL puromycin. Cells were plated into poly-D-lysine coated 384-well plates and cultured overnight in a 37° C. humidified tissue culture incubator under 5% CO2/[…] atmosphere. On the day of the experiment, the culture media was replaced with assay buffer (HBSS, 20 mM HEPES, 0.1% BSA) and the cells incubated at 37° C. for 1 h. Calcium-sensitive fluorescent dye (Fluo 8 No-Wash Calcium Dye, ABD Bioquest) was then added and the cells incubated for another 30 min at 37° C. followed by 15 min at room temperature while protected from the light. The cell plate and a plate of diluted compounds of Formula (I) were loaded into a fluorescent plate reader that added compounds onto the cells while measuring the fluorescence intensity of each well. The plate reader recorded fluorescence intensity at 1 second intervals for 8 min and provided the data for analysis in an Excel format. EC50 values were calculated using Prism (GraphPad) software.

Chain of human GPR40 (O14842 whole entry): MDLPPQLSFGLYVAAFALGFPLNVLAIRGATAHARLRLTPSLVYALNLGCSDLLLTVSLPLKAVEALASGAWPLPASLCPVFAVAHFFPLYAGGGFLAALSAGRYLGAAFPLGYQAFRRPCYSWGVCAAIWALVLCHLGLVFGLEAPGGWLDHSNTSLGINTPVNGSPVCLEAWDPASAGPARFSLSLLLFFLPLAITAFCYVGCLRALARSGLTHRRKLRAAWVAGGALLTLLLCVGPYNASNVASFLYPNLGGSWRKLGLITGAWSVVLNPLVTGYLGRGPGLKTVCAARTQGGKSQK

Compound | EC50
CC#CC(CC(=O)O)c1ccc(OCc2ccc3scc(-c4ccc(OCC5(C)CS(=O)(=O)C5)cc4C)c3c2)nc1 (stereo not shown) [Cpd 64, 3-(6-((3-(2-Methyl-4-((3-methyl-1,1-dioxidothietan-3-yl)methoxy)phenyl)benzo[b]thiophen-5-yl)methoxy)pyridin-3-yl)hex-4-ynoic acid] | 21 nM
CC#C[C@@H](CC(=O)O)c1ccc(OCc2ccc3scc(-c4cc(OCCOC)ccc4C)c3c2)cc1 [Cpd 65, (3S)-3-[4-([3-[5-(2-Methoxyethoxy)-2-methylphenyl]-1-benzothiophen-5-yl]methoxy)phenyl]hex-4-ynoic acid] | 11 nM
CC#C[C@@H](CC(=O)O)c1ccc(OCc2ccc3scc(-c4c(C)cccc4OCCOC)c3c2)cc1 [Cpd 66, (3S)-3-[4-([3-[2-(2-Methoxyethoxy)-6-methylphenyl]-1-benzothiophen-5-yl]methoxy)phenyl]hex-4-ynoic acid] | 14 nM
CC#C[C@@H](CC(=O)O)c1ccc(OCc2ccc3scc(-c4cccc(OCCOC)c4C)c3c2)cc1 [Cpd 67, (3S)-3-[4-([3-[3-(2-Methoxyethoxy)-2-methylphenyl]-1-benzothiophen-5-yl]methoxy)phenyl]hex-4-ynoic acid] | 9 nM
CC#C[C@@H](CC(=O)O)c1ccc(OCc2ccc3scc(-c4ccccc4OCCOC)c3c2)cc1 [Cpd 68, (3S)-3-[4-([3-[2-(2-Methoxyethoxy)phenyl]-1-benzothiophen-5-yl]methoxy)phenyl]hex-4-ynoic acid] | 19 nM
CC#C[C@H](CC(=O)O)c1ccc(OCc2ccc3scc(-c4ccc(OCCC(C)(C)O)cc4C)c3c2)nc1 [Cpd 70, (3S)-3-(6-((3-(4-(3-Hydroxy-3-methylbutoxy)-2-methylphenyl)benzo[b]thiophen-5-yl)methoxy)pyridin-3-yl)hex-4-ynoic acid] | 500 nM
CC#C[C@@H](CC(=O)O)c1ccc(OCc2ccc3scc(-c4ccc(OCCC(C)(C)O)cc4C)c3c2)nc1 [Cpd 71, (3R)-3-(6-((3-(4-(3-Hydroxy-3-methylbutoxy)-2-methylphenyl)benzo[b]thiophen-5-yl)methoxy)pyridin-3-yl)hex-4-ynoic acid] | 12 nM
CC#C[C@H](CC(=O)O)c1ccc(OCc2ccc3scc(-c4ccc(OCC5CCOCC5)cc4C)c3c2)nc1 [Cpd 72, (3S)-3-(6-((3-(2-Methyl-4-((tetrahydro-2H-pyran-4-yl)methoxy)phenyl)benzo[b]thiophen-5-yl)methoxy)pyridin-3-yl)hex-4-ynoic acid] | 1330 nM
CC#C[C@@H](CC(=O)O)c1ccc(OCc2ccc3scc(-c4ccc(OCC5CCOCC5)cc4C)c3c2)nc1 [Cpd 73, (3R)-3-(6-((3-(2-Methyl-4-((tetrahydro-2H-pyran-4-yl)methoxy)phenyl)benzo[b]thiophen-5-yl)methoxy)pyridin-3-yl)hex-4-ynoic acid] | 13 nM
CC#C[C@H](CC(=O)O)c1ccc(OCc2ccc3scc(-c4ccc(OCC5CCS(=O)(=O)CC5)cc4C)c3c2)nc1 [Cpd 74, (3S)-3-(6-((3-(4-((1,1-Dioxidotetrahydro-2H-thiopyran-4-yl)methoxy)-2-methylphenyl)benzo[b]thiophen-5-yl)methoxy)pyridin-3-yl)hex-4-ynoic acid] | 180 nM
CC#C[C@@H](CC(=O)O)c1ccc(OCc2ccc3scc(-c4ccc(OCC5CCS(=O)(=O)CC5)cc4C)c3c2)nc1 [Cpd 75, (3R)-3-(6-((3-(4-((1,1-Dioxidotetrahydro-2H-thiopyran-4-yl)methoxy)-2-methylphenyl)benzo[b]thiophen-5-yl)methoxy)pyridin-3-yl)hex-4-ynoic acid] | 7 nM
CC#C[C@H](CC(=O)O)c1ccc(OCc2ccc3scc(-c4ccc(OCCOC)cc4C)c3c2)nc1 [Cpd 76, (3S)-3-(6-((3-(4-(2-Methoxyethoxy)-2-methylphenyl)benzo[b]thiophen-5-yl)methoxy)pyridin-3-yl)hex-4-ynoic acid] | 830 nM
CC#C[C@@H](CC(=O)O)c1ccc(OCc2ccc3scc(-c4ccc(OCCOC)cc4C)c3c2)nc1 [Cpd 77, (3R)-3-(6-((3-(4-(2-Methoxyethoxy)-2-methylphenyl)benzo[b]thiophen-5-yl)methoxy)pyridin-3-yl)hex-4-ynoic acid] | 16 nM and 6 nM and 5 nM
CC#C[C@@H](CC(=O)O)c1ccc(OCc2ccc3scc(-c4cccnc4OC)c3c2)cc1 [Cpd 78, (3S)-3-(4-((3-(2-Methoxypyridin-3-yl)benzo[b]thiophen-5-yl)methoxy)phenyl)hex-4-ynoic acid] | 9 nM
CC#C[C@@H](CC(=O)O)c1ccc(OCc2ccc3scc(-c4ccccc4OC)c3c2)cc1 [Cpd 79, (3S)-3-(4-((3-(2-Methoxyphenyl)benzo[b]thiophen-5-yl)methoxy)phenyl)hex-4-ynoic acid] | 28 nM
CC#C[C@@H](CC(=O)O)c1ccc(OCc2ccc3scc(-c4ccc(OC)nc4C)c3c2)cc1 [Cpd 80, (3S)-3-(4-((3-(6-Methoxy-2-methylpyridin-3-yl)benzo[b]thiophen-5-yl)methoxy)phenyl)hex-4-ynoic acid] | 20 nM

Compound | EC50
CC#C[C@@H](CC(=O)O)c1ccc(OCc2ccc3scc(-c4cnccc4OC)c3c2)cc1 [Cpd 81, (3S)-3-(4-((3-(4-Methoxypyridin-3-yl)benzo[b]thiophen-5-yl)methoxy)phenyl)hex-4-ynoic acid] | 11 nM
CC#C[C@@H](CC(=O)O)c1ccc(OCc2ccc3scc(-c4cnc(OC)cc4C)c3c2)cc1 [Cpd 82, (3S)-3-(4-((3-(6-Methoxy-4-methylpyridin-3-yl)benzo[b]thiophen-5-yl)methoxy)phenyl)hex-4-ynoic acid] | 37 nM
CC#C[C@@H](CC(=O)O)c1ccc(OCc2ccc3scc(-c4ccncc4OC)c3c2)cc1 [Cpd 83, (3S)-3-(4-((3-(3-Methoxypyridin-4-yl)benzo[b]thiophen-5-yl)methoxy)phenyl)hex-4-ynoic acid] | 10 nM
CC#C[C@@H](CC(=O)O)c1ccc(OCc2ccc3scc(-c4ncc(OC)cc4C)c3c2)cc1 [Cpd 84, (3S)-3-(4-((3-(5-Methoxy-3-methylpyridin-2-yl)benzo[b]thiophen-5-yl)methoxy)phenyl)hex-4-ynoic acid] | 52 nM
CC#C[C@@H](CC(=O)O)c1ccc(OCc2ccc3scc(-c4ccccc4C)c3c2)nc1 [Cpd 85, (3R)-3-[6-[[3-(2-Methylphenyl)benzo[b]thiophen-5-yl]methoxy]pyridin-3-yl]hex-4-ynoic acid] | 7 nM and 6 nM
CC#C[C@@H](CC(=O)O)c1ccc(COc2ccc3scc(-c4ccc(OC5CCOC5)cc4C)c3c2)cc1 (stereo partly drawn) [Cpd 86, (3S)-3-[4-[([3-[2-Methyl-4-(tetrahydrofuran-3-yloxy)phenyl]-1-benzothiophen-5-yl]oxy)methyl]phenyl]hex-4-ynoic acid] | 8 nM
CC#C[C@@H](CC(=O)O)c1ccc(OCc2ccc3scc(-c4cc(OCCOC)ccc4C)c3c2)nc1 [Cpd 87, (3R)-3-(6-((3-(5-(2-Methoxyethoxy)-2-methylphenyl)benzo[b]thiophen-5-yl)methoxy)pyridin-3-yl)hex-4-ynoic acid] | 11 nM
CC#C[C@@H](CC(=O)O)c1ccc(OCc2ccc3scc(-c4cccc(OCCOC)c4C)c3c2)nc1 [Cpd 88, (3R)-3-(6-((3-(3-(2-Methoxyethoxy)-2-methylphenyl)benzo[b]thiophen-5-yl)methoxy)pyridin-3-yl)hex-4-ynoic acid] | 8 nM
CC#C[C@@H](CC(=O)O)c1ccc(OCc2ccc3scc(-c4ncc(OCCOC)cc4C)c3c2)nc1 [Cpd 89, (3R)-3-(6-((3-(5-(2-Methoxyethoxy)-3-methylpyridin-2-yl)benzo[b]thiophen-5-yl)methoxy)pyridin-3-yl)hex-4-ynoic acid] | 20 nM
CC#C[C@@H](CC(=O)O)c1ccc(OCc2ccc3scc(-c4cc(Cl)ncc4C)c3c2)nc1 [Cpd 90, (3R)-3-(6-((3-(2-Chloro-5-methylpyridin-4-yl)benzo[b]thiophen-5-yl)methoxy)pyridin-3-yl)hex-4-ynoic acid] | 15 nM
CC#C[C@@H](CC(=O)O)c1ccc(OCc2ccc3scc(-c4ncccc4OC)c3c2)cc1 [Cpd 91, (3S)-3-(4-((3-(3-Methoxypyridin-2-yl)benzo[b]thiophen-5-yl)methoxy)phenyl)hex-4-ynoic acid] | 17 nM
CC#C[C@@H](CC(=O)O)c1ccc(OCc2ccc3scc(-c4cc(OCCOC)cnc4C)c3c2)nc1 [Cpd 92, (3R)-3-(6-((3-(5-(2-Methoxyethoxy)-2-methylpyridin-3-yl)benzo[b]thiophen-5-yl)methoxy)pyridine-3-yl)hex-4-ynoic acid] | 13 nM
CC#C[C@@H](CC(=O)O)c1ccc(OCc2ccc3scc(-c4nc(Cl)ccc4C)c3c2)cc1 [Cpd 93, (3S)-3-(4-((3-(6-Chloro-3-methylpyridin-2-yl)benzo[b]thiophen-5-yl)methoxy)phenyl)hex-4-ynoic acid] | 15 nM
CC#C[C@@H](CC(=O)O)c1ccc(OCc2ccc3scc(-c4nc(OC)ccc4C)c3c2)cc1 [Cpd 94, (3S)-3-(4-((3-(6-Methoxy-3-methylpyridin-2-yl)benzo[b]thiophen-5-yl)methoxy)phenyl)hex-4-ynoic acid] | 15 nM
CC#C[C@@H](CC(=O)O)c1ccc(OCc2ccc3scc(-c4ccc(CC5CCNCC5)cc4C)c3c2)cc1 [Cpd 95, (3S)-3-(4-((3-(2-Methyl-4-(piperidin-4-ylmethyl)phenyl)benzo[b]-thiophen-5-yl)methoxy)phenyl)hex-4-ynoic acid] | 4 nM
